This is an account of results in ChEMBL document CHEMBL5096233, “Phenotypic Discovery of Triazolo[1,5-c]quinazolines as a First-In-Class Bone Morphogenetic Protein Amplifier Chemotype” (J Med Chem, 2022).

By inhibition is commonly meant the share of the control response that was lost under treatment. A high value points to strong suppression. Broadly, the IC50 is the concentration that gives 50% inhibition.

The source made the active and inactive calls. The rule behind the calls is not given here.

For test [1], the target named is T1, Phosphatidylinositol 4,5-bisphosphate 3-kinase catalytic subunit delta isoform (Homo sapiens) (UniProt O00329).
T1 sequence (whole entry): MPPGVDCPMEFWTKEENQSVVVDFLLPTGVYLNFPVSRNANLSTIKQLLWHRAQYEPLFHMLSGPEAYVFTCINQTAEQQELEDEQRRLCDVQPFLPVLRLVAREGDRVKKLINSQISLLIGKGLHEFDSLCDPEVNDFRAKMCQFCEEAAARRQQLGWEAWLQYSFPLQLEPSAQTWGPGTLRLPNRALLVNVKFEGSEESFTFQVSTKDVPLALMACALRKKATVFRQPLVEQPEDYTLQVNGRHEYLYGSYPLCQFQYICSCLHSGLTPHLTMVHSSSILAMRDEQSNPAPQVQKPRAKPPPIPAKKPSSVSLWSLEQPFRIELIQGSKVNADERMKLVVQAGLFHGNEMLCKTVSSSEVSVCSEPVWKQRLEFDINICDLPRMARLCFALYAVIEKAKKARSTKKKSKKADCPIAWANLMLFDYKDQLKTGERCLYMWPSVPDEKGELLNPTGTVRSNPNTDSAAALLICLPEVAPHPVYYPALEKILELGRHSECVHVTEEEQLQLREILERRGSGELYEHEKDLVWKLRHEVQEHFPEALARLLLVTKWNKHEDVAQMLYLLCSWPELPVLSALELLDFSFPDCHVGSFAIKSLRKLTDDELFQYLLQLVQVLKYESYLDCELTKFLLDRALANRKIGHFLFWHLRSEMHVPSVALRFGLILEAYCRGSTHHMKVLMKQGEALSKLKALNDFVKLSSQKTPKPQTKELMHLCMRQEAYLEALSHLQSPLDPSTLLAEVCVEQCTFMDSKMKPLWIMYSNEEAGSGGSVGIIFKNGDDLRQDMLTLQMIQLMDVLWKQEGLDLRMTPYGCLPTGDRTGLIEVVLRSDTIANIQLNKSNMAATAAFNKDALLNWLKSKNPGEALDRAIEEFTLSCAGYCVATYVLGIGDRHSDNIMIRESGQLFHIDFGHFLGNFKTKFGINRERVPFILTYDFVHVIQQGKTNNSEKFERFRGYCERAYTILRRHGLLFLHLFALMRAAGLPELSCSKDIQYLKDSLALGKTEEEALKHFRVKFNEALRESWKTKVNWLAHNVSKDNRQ
Put plainly: Inhibition of PI3Kdelta (unknown origin) at 10 uM relative to control.

Test [2] addresses Casein kinase I isoform delta (Homo sapiens, UniProt P48730). Description: Inhibition of CK1delta (unknown origin).
Test [3] has as its target T2, Phosphatidylinositol 4,5-bisphosphate 3-kinase catalytic subunit beta isoform (Homo sapiens, UniProt P42338). Description: Inhibition of PI3Kbeta (unknown origin).
Target sequence in this assay (P42338 whole entry, canonical isoform): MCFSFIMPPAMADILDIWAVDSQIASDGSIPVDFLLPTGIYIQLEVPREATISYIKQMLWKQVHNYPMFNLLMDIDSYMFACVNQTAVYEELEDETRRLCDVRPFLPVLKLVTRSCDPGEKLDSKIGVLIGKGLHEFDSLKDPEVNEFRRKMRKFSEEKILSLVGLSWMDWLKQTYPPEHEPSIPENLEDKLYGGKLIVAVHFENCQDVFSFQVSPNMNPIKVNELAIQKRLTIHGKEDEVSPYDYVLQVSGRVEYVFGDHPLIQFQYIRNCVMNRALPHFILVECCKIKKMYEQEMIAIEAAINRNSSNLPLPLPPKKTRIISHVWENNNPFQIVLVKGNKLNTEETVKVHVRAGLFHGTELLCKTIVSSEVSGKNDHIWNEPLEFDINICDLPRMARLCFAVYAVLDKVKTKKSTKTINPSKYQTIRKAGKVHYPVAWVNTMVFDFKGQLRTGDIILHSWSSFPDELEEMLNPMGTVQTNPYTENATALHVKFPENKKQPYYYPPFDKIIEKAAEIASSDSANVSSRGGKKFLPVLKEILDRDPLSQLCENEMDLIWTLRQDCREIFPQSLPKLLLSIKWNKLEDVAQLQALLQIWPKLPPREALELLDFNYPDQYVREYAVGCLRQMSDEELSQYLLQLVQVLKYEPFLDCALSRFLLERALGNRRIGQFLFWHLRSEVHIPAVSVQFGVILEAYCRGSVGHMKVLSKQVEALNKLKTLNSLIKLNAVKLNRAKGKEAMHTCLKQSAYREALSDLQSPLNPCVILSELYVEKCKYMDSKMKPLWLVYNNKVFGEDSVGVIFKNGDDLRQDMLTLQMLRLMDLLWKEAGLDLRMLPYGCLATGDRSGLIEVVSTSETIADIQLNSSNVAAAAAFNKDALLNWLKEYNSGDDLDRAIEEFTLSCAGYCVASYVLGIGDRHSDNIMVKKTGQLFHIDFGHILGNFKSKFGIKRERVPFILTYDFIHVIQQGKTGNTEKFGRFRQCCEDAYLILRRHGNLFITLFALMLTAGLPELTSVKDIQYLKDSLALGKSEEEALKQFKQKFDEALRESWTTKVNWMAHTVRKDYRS
Test [4] concerns the target T3, Phosphatidylinositol 4,5-bisphosphate 3-kinase catalytic subunit alpha isoform (Homo sapiens, UniProt P42336). Put plainly: Inhibition of PI3Kalpha (unknown origin) at 10 uM relative to control.
The subject of test [5] is C2C12. Description: Induction of osteogenic differentiation in mouse C2C12 cells assessed as ALP activity at 5 uM preincubated with compound in the presence of BMP-4 for 72 hrs followed by substrate addition and measured after 1 hrs by luminescence based assay relative to control. The class given is functional. The following applies: time 73 hrs.
For test [6], the target named is Casein kinase I isoform epsilon (Homo sapiens, UniProt P49674). Description: Inhibition of CK1epsilon (unknown origin).
The target in test [7] is Phosphatidylinositol 3-kinase catalytic subunit type 3 (Homo sapiens) (UniProt Q8NEB9). Description: Inhibition of VPS34 (unknown origin) at 10 uM relative to control.
The target in test [8] is T4, Phosphatidylinositol 4,5-bisphosphate 3-kinase catalytic subunit gamma isoform (Homo sapiens, UniProt P48736). Put plainly: Inhibition of PI3Kgamma (unknown origin) at 10 uM relative to control.
Target sequence in this assay (P48736 whole entry, looked up, canonical isoform): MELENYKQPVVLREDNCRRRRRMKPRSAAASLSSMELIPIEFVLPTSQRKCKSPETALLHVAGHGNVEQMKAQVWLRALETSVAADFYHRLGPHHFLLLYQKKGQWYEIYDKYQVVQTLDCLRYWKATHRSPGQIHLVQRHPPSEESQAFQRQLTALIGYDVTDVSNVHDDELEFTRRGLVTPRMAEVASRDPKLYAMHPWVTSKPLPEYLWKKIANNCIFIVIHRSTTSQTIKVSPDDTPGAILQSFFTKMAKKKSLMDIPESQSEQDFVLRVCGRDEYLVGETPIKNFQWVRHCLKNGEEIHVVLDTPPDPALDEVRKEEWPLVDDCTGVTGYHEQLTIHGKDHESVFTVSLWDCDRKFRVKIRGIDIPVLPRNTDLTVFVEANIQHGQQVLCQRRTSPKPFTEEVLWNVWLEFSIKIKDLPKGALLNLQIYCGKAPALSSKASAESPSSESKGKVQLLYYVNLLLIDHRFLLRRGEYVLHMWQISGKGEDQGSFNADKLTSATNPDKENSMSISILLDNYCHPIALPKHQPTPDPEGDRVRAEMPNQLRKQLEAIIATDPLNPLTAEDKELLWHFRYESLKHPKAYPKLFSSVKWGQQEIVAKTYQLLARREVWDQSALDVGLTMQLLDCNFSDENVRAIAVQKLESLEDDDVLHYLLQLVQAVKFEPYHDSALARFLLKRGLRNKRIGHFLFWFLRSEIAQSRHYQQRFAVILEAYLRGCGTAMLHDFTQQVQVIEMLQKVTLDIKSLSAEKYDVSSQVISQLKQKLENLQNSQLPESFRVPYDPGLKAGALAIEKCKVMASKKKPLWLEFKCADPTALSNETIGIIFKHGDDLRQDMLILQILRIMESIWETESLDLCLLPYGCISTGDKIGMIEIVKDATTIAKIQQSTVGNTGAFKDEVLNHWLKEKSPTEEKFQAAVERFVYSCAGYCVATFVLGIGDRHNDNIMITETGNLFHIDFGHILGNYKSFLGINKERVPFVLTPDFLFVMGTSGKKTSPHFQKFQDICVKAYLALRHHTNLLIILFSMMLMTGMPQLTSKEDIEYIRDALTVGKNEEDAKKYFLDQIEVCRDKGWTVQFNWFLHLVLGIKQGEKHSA
Test [9] deals with T3, Phosphatidylinositol 4,5-bisphosphate 3-kinase catalytic subunit alpha isoform. Put plainly: Inhibition of PI3Kalpha (unknown origin).
Test [10] concerns the target DNA-dependent protein kinase catalytic subunit (Homo sapiens, UniProt P78527). Description: Inhibition of DNA-PK (unknown origin).
Test [11] addresses T2, Phosphatidylinositol 4,5-bisphosphate 3-kinase catalytic subunit beta isoform. Description: Inhibition of PI3Kbeta (unknown origin) at 10 uM relative to control.
Target sequence in this assay (P42338 whole entry, looked up, canonical isoform): as the sequence (P42338 whole entry, canonical isoform) above
Test [12] deals with C2C12. Put plainly: Induction of osteogenic differentiation in mouse C2C12 cells assessed as ALP activity preincubated with compound in the presence of BMP-4 for 72 hrs followed by substrate addition and measured after 1 hrs by luminescence based assay. The class given is functional, cell-based. The following applies: time 73.0 hrs.
For another test, the system named is HEK293T. Put plainly: Activation of BMP signaling in HEK293T cells expressing BRE-Vent2 luciferase reporter gene assessed as BRE activation by measuring increase in luciferase activity measured after 22 hrs in the presence of BMP-4 by dual-luciferase assay. The class given is cell-based. As to conditions: Homo sapiens, filed as activator.
The target in test [13] is T4, Phosphatidylinositol 4,5-bisphosphate 3-kinase catalytic subunit gamma isoform. Description: Inhibition of PI3Kgamma (unknown origin).
Target sequence in this assay (P48736 whole entry, canonical isoform): as the sequence (P48736 whole entry, looked up, canonical isoform) above
Test [14] deals with Casein kinase I isoform alpha (Homo sapiens, UniProt P48729). Description: Inhibition of CK1alpha (unknown origin).
The target of test [15] is T5, Phosphatidylinositol 4,5-bisphosphate 3-kinase catalytic subunit delta isoform (Homo sapiens, UniProt O00329).
T5 sequence (O00329 whole entry): T1 sequence (whole entry)
Put plainly: Inhibition of PI3Kdelta (unknown origin).

A short description of test [16]: Inhibition of DMH-1 induced cardiogenesis in mouse embryonic stem cells transfected with Myh6-GFP pretreated with compound followed by DMH-1 stimulation for 24 hrs in the presence of BMP-4 with replacement of media on day 7 and 9 and measured after 11 days by DAPI-staining based assay. The following applies: embryonic stem cell.
The test system of test [17] is C2C12. Description: Induction of osteogenic differentiation in mouse C2C12 cells assessed as ALP activity preincubated with compound in the presence of BMP-4 for 72 hrs followed by substrate addition and measured after 1 hrs in the presence of BYL719 by luminescence based assay. It is filed as functional, cell-based. The following applies: time 73.0 hrs, DDE = dose-dependent effect.

The test system of test [18] is C2C12. Put plainly: Induction of osteogenic differentiation in mouse C2C12 cells assessed as ALP activity preincubated with compound in the presence of BMP-4 for 72 hrs followed by substrate addition and measured after 1 hrs in the presence of PIK93 by luminescence based assay. The class given is functional, cell-based. As to conditions: time 73.0 hrs, DDE = dose-dependent effect.

Casein kinase I isoform epsilon, sequence (P49674 whole entry, canonical isoform): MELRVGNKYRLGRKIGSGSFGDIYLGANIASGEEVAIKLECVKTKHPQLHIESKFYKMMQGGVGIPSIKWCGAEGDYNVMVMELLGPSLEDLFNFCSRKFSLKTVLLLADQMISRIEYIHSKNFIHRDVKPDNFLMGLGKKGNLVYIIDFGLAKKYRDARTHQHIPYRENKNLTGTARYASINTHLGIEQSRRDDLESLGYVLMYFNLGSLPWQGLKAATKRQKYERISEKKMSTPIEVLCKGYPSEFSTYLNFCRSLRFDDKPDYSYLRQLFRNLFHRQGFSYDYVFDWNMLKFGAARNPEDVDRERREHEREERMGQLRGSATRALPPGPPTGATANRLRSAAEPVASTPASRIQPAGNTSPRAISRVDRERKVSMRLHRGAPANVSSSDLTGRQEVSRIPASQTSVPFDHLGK
T3 sequence (P42336 whole entry, canonical isoform): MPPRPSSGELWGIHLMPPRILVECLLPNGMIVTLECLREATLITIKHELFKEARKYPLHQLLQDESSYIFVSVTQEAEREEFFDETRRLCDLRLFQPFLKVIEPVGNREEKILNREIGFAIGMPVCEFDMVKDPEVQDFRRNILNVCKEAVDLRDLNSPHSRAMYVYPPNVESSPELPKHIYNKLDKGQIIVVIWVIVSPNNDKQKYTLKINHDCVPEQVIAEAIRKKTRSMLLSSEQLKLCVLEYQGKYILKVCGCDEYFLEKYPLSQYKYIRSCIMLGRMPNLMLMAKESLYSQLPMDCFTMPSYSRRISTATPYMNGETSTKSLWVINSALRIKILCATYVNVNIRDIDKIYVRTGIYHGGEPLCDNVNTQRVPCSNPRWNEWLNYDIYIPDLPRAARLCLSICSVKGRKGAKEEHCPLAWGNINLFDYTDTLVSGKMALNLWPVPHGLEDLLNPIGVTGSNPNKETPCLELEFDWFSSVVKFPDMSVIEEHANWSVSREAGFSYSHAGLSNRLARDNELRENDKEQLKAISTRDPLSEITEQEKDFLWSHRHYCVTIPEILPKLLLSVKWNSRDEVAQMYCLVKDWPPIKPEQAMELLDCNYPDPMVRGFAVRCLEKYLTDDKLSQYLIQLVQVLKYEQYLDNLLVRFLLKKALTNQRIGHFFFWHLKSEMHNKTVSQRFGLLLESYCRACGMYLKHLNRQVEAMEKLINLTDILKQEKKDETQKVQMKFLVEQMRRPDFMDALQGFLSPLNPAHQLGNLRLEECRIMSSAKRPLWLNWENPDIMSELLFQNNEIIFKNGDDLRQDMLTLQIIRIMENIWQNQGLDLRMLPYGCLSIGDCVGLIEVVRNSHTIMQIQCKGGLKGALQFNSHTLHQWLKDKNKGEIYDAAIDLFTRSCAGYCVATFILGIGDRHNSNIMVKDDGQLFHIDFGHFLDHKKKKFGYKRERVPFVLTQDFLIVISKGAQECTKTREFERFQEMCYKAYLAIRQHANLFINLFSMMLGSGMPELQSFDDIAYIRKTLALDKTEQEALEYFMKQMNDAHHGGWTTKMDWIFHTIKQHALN
Casein kinase I isoform delta, sequence (P48730 whole entry, canonical isoform): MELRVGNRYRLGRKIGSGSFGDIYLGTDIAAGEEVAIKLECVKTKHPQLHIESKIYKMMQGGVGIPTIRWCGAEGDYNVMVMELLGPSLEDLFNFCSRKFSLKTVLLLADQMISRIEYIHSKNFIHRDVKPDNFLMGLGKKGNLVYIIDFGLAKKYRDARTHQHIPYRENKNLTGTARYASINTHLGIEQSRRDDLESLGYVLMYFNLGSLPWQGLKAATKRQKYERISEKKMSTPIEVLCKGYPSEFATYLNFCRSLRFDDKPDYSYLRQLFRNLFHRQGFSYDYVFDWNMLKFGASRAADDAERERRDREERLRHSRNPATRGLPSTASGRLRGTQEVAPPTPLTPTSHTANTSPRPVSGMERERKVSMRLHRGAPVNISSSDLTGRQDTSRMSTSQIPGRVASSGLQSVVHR
Casein kinase I isoform alpha, sequence (P48729 whole entry, canonical isoform): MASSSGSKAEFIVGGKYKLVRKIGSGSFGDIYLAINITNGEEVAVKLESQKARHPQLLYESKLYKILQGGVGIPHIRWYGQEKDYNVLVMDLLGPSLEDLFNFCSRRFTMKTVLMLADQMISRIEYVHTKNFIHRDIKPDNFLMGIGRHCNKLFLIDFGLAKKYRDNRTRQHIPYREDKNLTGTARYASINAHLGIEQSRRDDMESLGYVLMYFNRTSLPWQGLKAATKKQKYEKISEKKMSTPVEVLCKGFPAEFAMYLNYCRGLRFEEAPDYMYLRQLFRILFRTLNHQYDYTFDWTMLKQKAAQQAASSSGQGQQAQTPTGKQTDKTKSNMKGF

As for `Nc1nc2ccc(Cl)cc2c2nc(-c3ccco3)nn12` [CGS-15943], the inhibition in test [1] was 34%; in test [4] it was 86%; in test [7] it was 5%; in [8], 96%; in test [11] it was 39%. Further, the IC50 in [2] was 240 nM; in test [3], 8.48 µM; in test [6] it was 490 nM; in test [9], 1280 nM; in [10] it was 140 nM; in [13], 110 nM. Besides, the IC50 in test [14] turned out to be 820 nM; in test [15] it was 970 nM; in [16], 500 nM. Further, the Activity with C2C12 [5] was 290%. Moreover, the outcome with C2C12 [12] and in the test with HEK293T was Active.
Regarding `Cc1nc(NC(=O)N2CCC[C@H]2C(N)=O)sc1-c1ccnc(C(C)(C)C(F)(F)F)c1`, in the test on C2C12 [12], the outcome was Active.
As to `Nc1ccc2nc(N)n3nc(-c4ccco4)nc3c2c1`, the outcome with HEK293T was Active.
As to `Fc1cccc(-n2cnc3c(NCc4nc5c(F)c(F)ccc5[nH]4)nc(N4CCOCC4)nc32)c1`, the Activity result with C2C12 [17] and in the test on C2C12 [18] was “Dde” each time.
Turning to `CC(=O)/N=c1/[nH]c(C)c(-c2ccc(Cl)c(S(=O)(=O)NCCO)c2)s1`, the outcome in the test with C2C12 [12] was Active.
On to `Nc1nc2ccc(F)cc2c2nc(-c3ccco3)nn12`, for which the outcome in the test with C2C12 [12] and in the test with HEK293T was Active.
Turning to `Nc1nc2ccc(Cl)cc2c2nc(-c3ncco3)nn12`, the inhibition in test [1] is 79%; in test [4] it was 82%; in test [7], 10%; in [8], 91%; in [11], 29%. Besides, the IC50 in test [2] worked out at 430 nM; in test [6], 2070 nM; in test [14] it was 2920 nM. For the same compound, the Activity with C2C12 [5] was 166%. In addition, the outcome in the test on C2C12 [12] and in the test on HEK293T was Active.
For the compound `Nc1nc2ccc(O)cc2c2nc(-c3ccco3)nn12`, the inhibition was determined as 11% in test [1]; 72% in test [4]; 29% in test [7]; 79% in test [8]; 0% in test [11]. The IC50 was 3640 nM in test [2], more than 10000 nM in test [6] and 6180 nM in test [14]. In addition, the Activity in the test with C2C12 [5] came out at 184%. The result in the test with HEK293T was Active.
On to `Nc1nc2ccccc2c2nc(-c3ccco3)nn12`, for which the outcome in the test with C2C12 [12] and in the test with HEK293T was Active.
With `Nc1nc2ccc(Br)cc2c2nc(-c3ccco3)nn12`, the inhibition in test [1] came out at 75%; in test [4], 80%; in test [7] it was 6%; in test [8] it was 93%; in test [11], 27%. In addition, the IC50 in test [2] came out at 120 nM; in test [6], 380 nM; in test [14] it was 220 nM. The Activity in the test on C2C12 [5] turned out to be 554%. Also, the outcome in the test on C2C12 [12] and in the test on HEK293T was Active.
